What was measured:
[1] = biological target: T1, diadenylate cyclase of Streptococcus suis (ssDacA) (Streptococcus suis, UniProt A0A0H3N0L3); assay: Kinase-Glo ATP consumption assay with purified enzyme ([…] ssDacA); confirmed by HPLC of c-di-AMP; type: biochemical
T1 construct: gene dacA; C-terminal catalytic domain (residues 99 to 283), His-tagged, from S. suis SC19

[2] = biological target: T1, diadenylate cyclase of Streptococcus suis (ssDacA); assay: HPLC quantification of product formed by purified enzyme; type: biochemical

T1 sequence (A0A0H3N0L3 entry or part of it): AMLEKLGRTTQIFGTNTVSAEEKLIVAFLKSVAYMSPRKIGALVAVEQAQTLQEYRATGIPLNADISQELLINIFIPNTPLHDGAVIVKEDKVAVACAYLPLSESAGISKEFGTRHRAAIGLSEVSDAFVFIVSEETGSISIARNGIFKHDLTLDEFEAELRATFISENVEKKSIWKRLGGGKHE

| IC50 [1] | SMILES | HPLC quantification of product formed by purified enzyme [2] |
| --- | --- | --- |
| 38.2 µM | Oc1ccc2ccccc2c1SSc1c(O)ccc2ccccc12 [IPA-3, 2,2′-dihydroxy-1,1′-dinapthyldisulfide] | – |
| – | Nc1ncnc2c1ncn2[C@@H]1O[C@@H]2COP(=O)(O)O[C@H]3[C@@H](O)[C@H](n4cnc5c(N)ncnc54)O[C@@H]3COP(=O)(O)O[C@H]2[C@H]1O [c-di-AMP] | the catalytic product c-di-AMP in the reaction was detected in the presence and absence of IPA-3 in vitro |
